Each block holds one compound with its values, some of them ahead of it.
Legend:
Format in all cases: physicochemical
[1] = Storage stability at different relative humidities and temperatures in packed bags, XRPD after 1, 2, 3 and 6 months
Method: Powder X-ray Diffraction was performed on an X-Ray powder diffractometer Bruker D8 Advance; CuK radiation (λ=1.5418 Å); Lynx eye detector; laboratory temperature 22-25° C.; PMMA specimen holder ring. Prior to analysis, the samples were gently ground by means of mortar and pestle in order to obtain a fine powder. The ground sample was adjusted into a cavity of the sample holder and the surface of the sample was smoothed by means of a cover glass.
Measurement parameters: Scan range: 2-40 degrees 2-theta; Scan mode: continuous; Step size: 0.05 degrees; Time per step: 0.5 s; Sample spin: 30 rpm; Sample holder: PMMA specimen holder ring with silicon low background.
Samples of Delgocitinib polymorph forms according to the disclosure were subjected to conditions of different relative humidities at different temperatures. Forms DL1 was kept in low-density polyethylene bag (twist and tied) covered by triple laminated bag (heat and sealed). Forms DL2, DL3, DL10 and DL11 were kept in low-density polyethylene bag (twist and tied) and covered by triple laminated bag (heat and sealed), while 2 gram silica gel sachet was added in between the two bags.

[2] = Storage stability at different relative humidities at ambient temperature, XRPD after 7 days; conditions: for XRPD after storage at different relative humidities for 7 days: ambient temperature
Method: Powder X-ray Diffraction was performed on an X-Ray powder diffractometer Bruker D8 Advance; CuK radiation (λ=1.5418 Å); Lynx eye detector; laboratory temperature 22-25° C.; PMMA specimen holder ring. Prior to analysis, the samples were gently ground by means of mortar and pestle in order to obtain a fine powder. The ground sample was adjusted into a cavity of the sample holder and the surface of the sample was smoothed by means of a cover glass. Measurement parameters: Scan range: 2-40 degrees 2-theta; Scan mode: continuous; Step size: 0.05 degrees; Time per step: 0.5 s; Sample spin: 30 rpm; Sample holder: PMMA specimen holder ring with silicon low background. Samples of crystalline forms of Delgocitinib according to the disclosure, were subjected to conditions of different relative humidities at ambient temperature. XRPD analysis was performed on the samples after 7 days.

[3] = Stability to compression (2 tons, hydraulic press), XRPD after 2 minutes
Method: Powder X-ray Diffraction was performed on an X-Ray powder diffractometer Bruker D8 Advance; CuK radiation (λ=1.5418 Å); Lynx eye detector; laboratory temperature 22-25° C.; PMMA specimen holder ring. Prior to analysis, the samples were gently ground by means of mortar and pestle in order to obtain a fine powder. The ground sample was adjusted into a cavity of the sample holder and the surface of the sample was smoothed by means of a cover glass. Measurement parameters: Scan range: 2-40 degrees 2-theta; Scan mode: continuous; Step size: 0.05 degrees; Time per step: 0.5 s; Sample spin: 30 rpm; Sample holder: PMMA specimen holder ring with silicon low background. Samples of Delgocitinib were subjected to pressures of 2 tons (Atlas® Autopress hydraulic press, set to 2 tons). XRPD analysis was carried out on the samples after 2 minutes.

[4] = Grinding experiments (strong grinding in mortar with pestle for 2 minutes), XRPD after grinding; conditions: for XRPD after grinding: about 20 mg ground in mortar with pestle for 2 minutes
Method: Powder X-ray Diffraction was performed on an X-Ray powder diffractometer Bruker D8 Advance; CuK radiation (λ=1.5418 Å); Lynx eye detector; laboratory temperature 22-25° C.; PMMA specimen holder ring. Prior to analysis, the samples were gently ground by means of mortar and pestle in order to obtain a fine powder. The ground sample was adjusted into a cavity of the sample holder and the surface of the sample was smoothed by means of a cover glass. Measurement parameters: Scan range: 2-40 degrees 2-theta; Scan mode: continuous; Step size: 0.05 degrees; Time per step: 0.5 s; Sample spin: 30 rpm; Sample holder: PMMA specimen holder ring with silicon low background. Samples of Delgocitinib forms according to the disclosure were subjected to strong grinding. In these experiments, about 20 mg of the sample was placed in a mortar and ground with a pestle for 2 minutes. XRPD analysis was performed on each sample after the grinding experiment (Table 4): […]

XRPD after storage at 25° C. at 60% RH ([1]; 1 month, listed as DL1): DL1 | XRPD after storage at 25° C. at 60% RH ([1]; 2 months, listed as DL1): DL1 | XRPD after storage at 25° C. at 60% RH ([1]; 3 months, listed as DL1): DL1 | XRPD after storage at 25° C. at 60% RH ([1]; 6 months, listed as DL1): DL1 | Storage stability (conclusion in words) ([1]; 25° C./60% RH and 40° C./75% RH, up to 6 months): highly storage stable | XRPD after storage at 40° C. at 75% RH ([1]; 1 month, listed as DL1): DL1 | XRPD after storage at 40° C. at 75% RH ([1]; 2 months, listed as DL1): DL1 | XRPD after storage at 40° C. at 75% RH ([1]; 3 months, listed as DL1): DL1 | XRPD after storage at 40° C. at 75% RH ([1]; 6 months, listed as DL1): DL1 | XRPD after storage at different relative humidities for 7 days ([2]; 20% relative humidity, listed as DL1): DL1 | Stability after exposure to high and low relative humidity conditions (conclusion in words) ([2]; 20-80% relative humidity, at least 7 days): stable | XRPD after storage at different relative humidities for 7 days ([2]; 40% relative humidity, listed as DL1): DL1 | XRPD after storage at different relative humidities for 7 days ([2]; 60% relative humidity, listed as DL1): DL1 | XRPD after storage at different relative humidities for 7 days ([2]; 80% relative humidity, listed as DL1): DL1 | XRPD after compression force (2 tons for 2 minutes) ([3]; listed as DL1): DL1 | Stability under high pressure conditions (conclusion in words) ([3]; 2 tons, 2 minutes): stable under high pressure conditions | XRPD after grinding ([4]; listed as DL1): DL1 | Resistance to polymorphic changes on grinding (conclusion in words) ([4]; strong grinding, 2 minutes): resistant to polymorphic changes
SMILES: C[C@H]1CN(C(=O)CC#N)[C@]12CCN(c1ncnc3[nH]ccc13)C2 [Form DL1, 3-[(3S,4R)-3-methyl-7-(7H-pyrrolo[2,3-d]pyrimidin-4-yl)-1,7-diazaspiro[3.4]octan-1-yl]-3-oxopropanenitrile]

XRPD after storage at 25° C. at 60% RH ([1]; 1 month, listed as DL2): DL2 | XRPD after storage at 25° C. at 60% RH ([1]; 2 months, listed as DL2): DL2 | XRPD after storage at 25° C. at 60% RH ([1]; 3 months, listed as DL2): DL2 | XRPD after storage at 25° C. at 60% RH ([1]; 6 months, listed as DL2): DL2 | XRPD after storage at 40° C. at 75% RH ([1]; 1 month, listed as DL2): DL2 | XRPD after storage at 40° C. at 75% RH ([1]; 2 months, listed as DL2): DL2 | XRPD after storage at 40° C. at 75% RH ([1]; 3 months, listed as DL2): DL2 | XRPD after storage at 40° C. at 75% RH ([1]; 6 months, listed as DL2): DL2 | XRPD after storage at different relative humidities for 7 days ([2]; 20% relative humidity, listed as DL2): DL2 | XRPD after storage at different relative humidities for 7 days ([2]; 40% relative humidity, listed as DL2): DL2 | XRPD after storage at different relative humidities for 7 days ([2]; 60% relative humidity, listed as DL2): DL2 | XRPD after storage at different relative humidities for 7 days ([2]; 80% relative humidity, listed as DL2): DL2 | XRPD after compression force (2 tons for 2 minutes) ([3]; listed as DL2): DL2 | XRPD after grinding ([4]; listed as DL2): DL2
SMILES: C[C@H]1CN(C(=O)CC#N)[C@]12CCN(c1ncnc3[nH]ccc13)C2 [Form DL2, 3-[(3S,4R)-3-methyl-7-(7H-pyrrolo[2,3-d]pyrimidin-4-yl)-1,7-diazaspiro[3.4]octan-1-yl]-3-oxopropanenitrile]

XRPD after storage at 25° C. at 60% RH ([1]; 1 month, listed as DL3): DL3 | XRPD after storage at 25° C. at 60% RH ([1]; 2 months, listed as DL3): DL3 | XRPD after storage at 25° C. at 60% RH ([1]; 3 months, listed as DL3): DL3 | XRPD after storage at 25° C. at 60% RH ([1]; 6 months, listed as DL3): DL3 | XRPD after storage at 40° C. at 75% RH ([1]; 1 month, listed as DL3): DL3 | XRPD after storage at 40° C. at 75% RH ([1]; 2 months, listed as DL3): DL3 | XRPD after storage at 40° C. at 75% RH ([1]; 3 months, listed as DL3): DL3 | XRPD after storage at 40° C. at 75% RH ([1]; 6 months, listed as DL3): DL3 | XRPD after storage at different relative humidities for 7 days ([2]; 20% relative humidity, listed as DL3): DL3 | XRPD after storage at different relative humidities for 7 days ([2]; 40% relative humidity, listed as DL3): DL3 | XRPD after storage at different relative humidities for 7 days ([2]; 60% relative humidity, listed as DL3): DL3 | XRPD after storage at different relative humidities for 7 days ([2]; 80% relative humidity, listed as DL3): DL3 | XRPD after compression force (2 tons for 2 minutes) ([3]; listed as DL3): DL3 | XRPD after grinding ([4]; listed as DL3): DL3
SMILES: C[C@H]1CN(C(=O)CC#N)[C@]12CCN(c1ncnc3[nH]ccc13)C2 [Form DL3, 3-[(3S,4R)-3-methyl-7-(7H-pyrrolo[2,3-d]pyrimidin-4-yl)-1,7-diazaspiro[3.4]octan-1-yl]-3-oxopropanenitrile]

XRPD after storage at 25° C. at 60% RH ([1]; 1 month, listed as DL10): DL10 | XRPD after storage at 25° C. at 60% RH ([1]; 2 months, listed as DL10): DL10 | XRPD after storage at 25° C. at 60% RH ([1]; 3 months, listed as DL10): DL10 | XRPD after storage at 25° C. at 60% RH ([1]; 6 months, listed as DL10): DL10 | XRPD after storage at 40° C. at 75% RH ([1]; 1 month, listed as DL10): DL10 | XRPD after storage at 40° C. at 75% RH ([1]; 2 months, listed as DL10): DL10 | XRPD after storage at 40° C. at 75% RH ([1]; 3 months, listed as DL10): DL10 | XRPD after storage at 40° C. at 75% RH ([1]; 6 months, listed as DL10): DL10 | XRPD after storage at different relative humidities for 7 days ([2]; 20% relative humidity, listed as DL10): DL10 | XRPD after storage at different relative humidities for 7 days ([2]; 40% relative humidity, listed as DL10): DL10 | XRPD after storage at different relative humidities for 7 days ([2]; 60% relative humidity, listed as DL10): DL10 | XRPD after storage at different relative humidities for 7 days ([2]; 80% relative humidity, listed as DL10): DL10 | XRPD after compression force (2 tons for 2 minutes) ([3]; listed as DL10): DL10 | XRPD after grinding ([4]; listed as DL10): DL10
SMILES: C[C@H]1CN(C(=O)CC#N)[C@]12CCN(c1ncnc3[nH]ccc13)C2 [Form DL10, 3-[(3S,4R)-3-methyl-7-(7H-pyrrolo[2,3-d]pyrimidin-4-yl)-1,7-diazaspiro[3.4]octan-1-yl]-3-oxopropanenitrile]

XRPD after storage at 25° C. at 60% RH ([1]; 1 month, listed as DL11): DL11 | XRPD after storage at 25° C. at 60% RH ([1]; 2 months, listed as DL11): DL11 | XRPD after storage at 25° C. at 60% RH ([1]; 3 months, listed as DL11): DL11 | XRPD after storage at 25° C. at 60% RH ([1]; 6 months, listed as DL11): DL11 | XRPD after storage at 40° C. at 75% RH ([1]; 1 month, listed as DL11): DL11 | XRPD after storage at 40° C. at 75% RH ([1]; 2 months, listed as DL11): DL11 | XRPD after storage at 40° C. at 75% RH ([1]; 3 months, listed as DL11): DL11 | XRPD after storage at 40° C. at 75% RH ([1]; 6 months, listed as DL11): DL11 | XRPD after storage at different relative humidities for 7 days ([2]; 20% relative humidity, listed as DL11): DL11 | XRPD after storage at different relative humidities for 7 days ([2]; 40% relative humidity, listed as DL11): DL11 | XRPD after storage at different relative humidities for 7 days ([2]; 60% relative humidity, listed as DL11): DL11 | XRPD after storage at different relative humidities for 7 days ([2]; 80% relative humidity, listed as DL11): DL11 | XRPD after compression force (2 tons for 2 minutes) ([3]; listed as DL11): DL11 | XRPD after grinding ([4]; listed as DL11): DL11
SMILES: C[C@H]1CN(C(=O)CC#N)[C@]12CCN(c1ncnc3[nH]ccc13)C2 [Form DL11, 3-[(3S,4R)-3-methyl-7-(7H-pyrrolo[2,3-d]pyrimidin-4-yl)-1,7-diazaspiro[3.4]octan-1-yl]-3-oxopropanenitrile]

— patent US20260234167A1, “SOLID STATE FORMS OF DELGOCITINIB AND PROCESS THEREOF” (ASSIA CHEMICAL INDUSTRIES LTD., priority 2023, published 2026)
